The numbers were not newly measured in patent publication US20190008784A1, “NOVEL SECNIDAZOLE SOFT GELATIN CAPSULE FORMULATIONS AND USES THEREOF” (SYMBIOMIX THERAPEUTICS, LLC, priority 2017, published 2019), which cites them from elsewhere.

Data set [1] concerns bacterial vaginosis. Particulars: 500 mg ovule formulation compared with 37.5 mg gel.
In data set [2] the test system is bacterial vaginosis. Particulars: intravaginal 750 mg ovule compared with 500 mg ovule.

In the case of `Cc1ncc([N+](=O)[O-])n1CCO` [metronidazole], the “Effectiveness in the treatment of bacterial vaginosis” value in the data set with bacterial vaginosis [1] was “significantly more effective”. In addition, in the data set with bacterial vaginosis [2], the Cure rates result is listed as “higher cure rates”.
